Source: paper doi:10.64898/2025.12.04.692314v1 (biorxiv, 2025)

Experiments:
Assay type in all cases: binding
[1] = target: AtACO2 (Arabidopsis thaliana, UniProt Q41931); test: intrinsic tryptophan fluorescence quenching; settings: 5 µM enzyme, Ni(II), 50 mM Tris pH 7.5, 28 °C; negative control (non-binder)
[2] = target: PhACO1 (Petunia x hybrida, UniProt Q08506); test: isothermal titration calorimetry
[3] = target: PhACO1 (Petunia x hybrida, UniProt Q08506, R244A); test: isothermal titration calorimetry
PhACO1 (Petunia x hybrida, UniProt Q08506, R244A), sequence (Q08506 whole entry R244A): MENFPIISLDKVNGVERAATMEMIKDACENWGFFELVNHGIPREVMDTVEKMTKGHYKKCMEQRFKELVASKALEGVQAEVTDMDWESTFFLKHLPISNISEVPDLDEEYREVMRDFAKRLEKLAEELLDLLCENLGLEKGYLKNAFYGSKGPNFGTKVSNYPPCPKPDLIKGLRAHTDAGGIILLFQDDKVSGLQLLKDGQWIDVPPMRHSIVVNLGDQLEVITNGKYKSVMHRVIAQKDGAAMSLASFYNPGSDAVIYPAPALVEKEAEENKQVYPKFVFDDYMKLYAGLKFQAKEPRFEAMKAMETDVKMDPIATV

PhACO1 (Petunia x hybrida, UniProt Q08506), sequence (Q08506 whole entry): as the sequence (Q08506 whole entry R244A) above, with A244R counted along it
AtACO2, sequence (Q41931 whole entry): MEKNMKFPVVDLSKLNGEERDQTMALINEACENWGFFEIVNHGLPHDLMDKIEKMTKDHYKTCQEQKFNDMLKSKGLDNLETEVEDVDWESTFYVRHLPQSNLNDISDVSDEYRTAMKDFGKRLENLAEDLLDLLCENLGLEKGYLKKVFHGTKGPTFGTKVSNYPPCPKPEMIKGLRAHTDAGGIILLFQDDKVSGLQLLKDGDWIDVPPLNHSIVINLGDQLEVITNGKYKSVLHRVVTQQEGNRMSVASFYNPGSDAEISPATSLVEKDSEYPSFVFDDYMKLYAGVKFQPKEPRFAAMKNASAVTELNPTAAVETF

intrinsic tryptophan fluorescence quenching [1]	SMILES	Kd [2]	Kd [3]
benzoic acid did not quench fluorescence	O=C(O)c1ccccc1 [benzoic acid]		
	O=C(O)c1cnccn1 [POA]	69.5 µM	104 µM
